Laboratory results reported in PubChem BioAssay AID856 (The Scripps Research Institute Molecular Screening Center, 2007).
Several values for one entry are separate records, joined by “and”; a condition that tells them apart may be missing. Identical values can stand only once. Activity calls are given as the source filed them. The rule behind the calls is not given here.

tested on: CRE-bla reporter cells, beta-lactamase FRET, antagonist mode; test: inhibition of CRE beta-lactamase reporter – cell-based, beta-lactamase FRET, counter-screen for S1P2 antagonist project, dose response (AID 856)

Row | SMILES | IC50
1 | O=S1(=O)C=C(Sc2nc3cc(Cl)ccc3o2)c2ccccc21 | 4040 nM
2 | O=S(=O)(C/C(=C/CO)S(=O)(=O)c1ccccc1)c1ccccc1 | 3710 nM
3 | COC(=O)c1sc2cc(C(F)(F)F)cnc2c1-c1cccs1 | > 40000 nM (inactive)
4 | CCCCCCCCCn1c2c(c(=N)c3c1CCC3)CCC2 | 459 nM
5 | Cc1cccc(NC2=Nc3ccccc3N3C2=Nc2c(c(C)nn2-c2ccccc2)C3c2ccc(O)c(O)c2)c1 (configuration not stated) | 8000 nM
6 | O=C(NC(Nc1nc2ccc([N+](=O)[O-])cc2s1)(C(F)(F)F)C(F)(F)F)c1ccccc1 | 101 nM
7 | O=C(C#Cc1cccc([N+](=O)[O-])c1)c1ccccc1 | 2270 nM
8 | COc1ccc(OC)c(NC(=O)CSc2ncnc3c2cnn3-c2ccccc2Cl)c1 | 640 nM
9 | COC(=O)c1sc2cc(C(F)(F)F)cnc2c1-c1ccccc1 | > 40000 nM (inactive)
10 | CCn1c(=O)c(C(=O)Nc2nc3ccccc3[nH]2)c(O)c2ccccc21 | 29100 nM (inactive)
11 | CC1=C/C(=N\OS(=O)(=O)c2ccccc2)C(C)=CC1=O | 2390 nM
12 | CC1=C(C)/C(=N\OS(=O)(=O)c2ccccc2)C=CC1=O | 2650 nM
13 | N#C/C(=C/c1ccc(N2CCCCCC2)o1)c1ccc(F)cc1 | 9670 nM
14 | CCOC(=O)C1C(=O)CC(C)(O)C(C(=O)OCC)C1c1ccccc1 (configuration not stated) | > 50000 nM (inactive)
15 | CCCCS(=O)(=O)/C=C\C=C/S(=O)(=O)CCCC | 1960 nM
16 | Cn1nc(-c2ccc(Cl)cc2)nc2c(=O)n(C)c(=O)nc1-2 | 634 nM
17 | CCN(C(=O)c1ccc(C(C)(C)C)cc1)c1nnc(Cn2nnc3ccccc32)s1 | 1800 nM
18 | COC(=O)c1sc2cc(C(F)(F)F)cnc2c1-c1ccccn1 | > 40000 nM (inactive)
19 | Cc1ccc(-n2c(-c3ccc(Br)cc3)c[n+]3c2CCc2ccc4cccnc4c2-3)cc1 | 1490 nM
20 | Cc1ccc(NC2=Nc3ccccc3N3C2=Nc2c(c(C)nn2-c2ccccc2)C3c2ccc(O)c(O)c2)cc1 (configuration not stated) | 9980 nM
21 | Fc1ccc(-n2nnnc2-c2cnc(-c3cccs3)nc2C(F)(F)F)cc1 | 2920 nM
22 | Cc1ccc(C(=O)OCn2ncc(Cl)c(Cl)c2=O)cc1 | 3080 nM
23 | O=C(c1cc(NC(=O)C23CC4CC(CC(C4)C2)C3)cc(NC(=O)C23CC4CC(CC(C4)C2)C3)c1)N1CCCCC1 | 793 nM
24 | Cc1nn(-c2ccccc2)c2c1C(c1ccc(O)c(O)c1)N1C(=N2)C(Nc2ccccc2)=Nc2ccccc21 (configuration not stated) | 10500 nM (inactive)
25 | CCCCCCCCNc1ncnc2ccccc12 | 42 nM
26 | COc1ccc(NC(=O)/C(Cl)=C(/Cl)S(=O)Cc2ccccc2)cn1 (configuration not stated) | 1280 nM

Row | SMILES | IC50
27 | O=C(O)c1sc2cc(C(F)(F)F)cnc2c1-c1ccccc1 | > 40000 nM (inactive)
28 | CCOC(=O)N1CCN(C(=O)CSCC(=O)Nc2nc(-c3ccc(-c4ccccc4)cc3)cs2)CC1 | 873 nM
29 | Cn1c(-c2c(N)n(CCCc3ccccc3)c3nc4ccccc4nc23)nc2ccccc21 | > 50000 nM (inactive)
30 | COC(=O)C1CN(C#N)N(c2ccc(Cl)cc2)C12c1ccccc1-c1ccccc12 (configuration not stated) | 607 nM
31 | CCN1/C(=C/c2ccc3ccccc3[n+]2CC)C=Cc2ccccc21 | 1080 nM
32 | COC(=O)c1sc2cc(C(F)(F)F)cnc2c1-c1cccnc1 | > 40000 nM (inactive)
33 | O=C(Nc1ccc(F)cc1)c1sccc1S(=O)(=O)Cc1cccc(C(F)(F)F)c1 | > 40000 nM (inactive)
34 | O=C(Nc1ccc(F)cc1)c1sc2cc(C(F)(F)F)cnc2c1-c1cccs1 | > 50 µM (inactive) and > 40 µM (inactive)
35 | CN(C)C=NC(=O)c1sc2cc(C(F)(F)F)cnc2c1-c1cccs1 | > 40000 nM (inactive)
36 | Cc1ccc2[nH]c3c(N4CCc5ccccc5C4)ncnc3c2c1 | 569 nM
37 | CCC(NC(=O)Nc1nnc(C(F)(F)F)s1)(C(F)(F)F)C(F)(F)F | 1260 nM
38 | Cn1c(-c2c(N)n(C3CCCC3)c3nc4ccccc4nc23)nc2ccccc21 | 2370 nM
39 | COc1ccc(NC(=O)/C(Cl)=C(/Cl)S(=O)(=O)Cc2ccccc2)cn1 | 1560 nM
40 | O=C(O)c1sc2cc(C(F)(F)F)cnc2c1-c1cccnc1 | > 40000 nM (inactive)
41 | COc1ccc2c(c1)[nH]c1c(N3CCN(Cc4ccc5c(c4)OCO5)CC3)ncnc12 | 1400 nM
42 | FC(F)(F)c1cnc2c(-c3cccs3)csc2c1 | > 40000 nM (inactive)
43 | O=C(Nc1ccc(F)cc1)c1cccs1 | > 40000 nM (inactive)
44 | O=C(Nc1ccc(F)cc1)c1cc(-c2cccs2)nc2ccccc12 | > 40000 nM (inactive)
45 | FC(F)(F)c1cnc2c(-c3cccs3)c(-c3ncn[nH]3)sc2c1 | > 40000 nM (inactive)
46 | O=C(O)c1sc2cc(C(F)(F)F)cnc2c1-c1ccccn1 | > 40000 nM (inactive)
47 | Cc1n[nH]c(C)c1N1C(=O)c2cccc3c(Br)ccc(c23)C1=O | 5750 nM
48 | COc1ccc(NC(=O)/C(Cl)=C(/Cl)S(=O)(=O)Cc2ccc(C)cc2)cn1 | 1430 nM
49 | COc1cccc(-c2nnc3n2N=C(C(C)(C)C)CS3)c1 | 1070 nM
50 | CC(=O)Nc1cc(OC(C)=O)c2nonc2c1OC(C)=O | 3340 nM
51 | CCCCCCCCCCn1c2c(c(=N)c3c1CCC3)CCC2 | 333 nM
52 | CCN1/C(=C\C=C\C2=[N+](CC)c3ccccc3C2(C)C)C(C)(C)c2ccccc21 | 64 nM

Row | SMILES | IC50
53 | Nc1nc(Cl)cc(N2CCC(c3cc(-c4ccc(Cl)cc4)n[nH]3)CC2)n1 | 1490 nM
54 | CCOC(=O)c1cnc(-n2nc(C)cc2C)nc1NC1CCCCC1 | 1750 nM
55 | O=C(OCn1ncc(Cl)c(Cl)c1=O)c1ccccc1Cl | 2580 nM
56 | O=C(c1sc2cc(C(F)(F)F)cnc2c1-c1ccccc1)N1CCOCC1 | > 40000 nM (inactive)
57 | O=C(O)c1sc2cc(C(F)(F)F)cnc2c1-c1cccs1 | > 40000 nM (inactive)
58 | CN(C)C=NC(=O)c1sc2cc(C(F)(F)F)cnc2c1-c1ccccc1 | > 40000 nM (inactive)
59 | CCN(CC)c1ccc2c(Cl)c(Br)c(=O)oc2c1 | 4370 nM
60 | COc1ccc(NC(=O)/C(Cl)=C(/Cl)S(=O)Cc2ccc(C)cc2)cn1 (configuration not stated) | 752 nM
61 | NC(=O)c1sc2cc(C(F)(F)F)cnc2c1-c1cccs1 | > 40000 nM (inactive)
62 | Cc1nc(-c2cccs2)sc1C(=O)Nc1ccc(F)cc1 | > 40000 nM (inactive)
63 | CC1=C/C(=N\OS(=O)(=O)c2ccccc2)C=CC1=O | 2920 nM
64 | O=C(OCn1ncc(Cl)c(Cl)c1=O)c1ccc(F)cc1 | 3810 nM
65 | O=C(Nc1ccc(S(=O)(=O)N2CCOCC2)cc1)c1ccc(CN2CCc3ccccc3C2)cc1 | 773 nM
66 | N#CC(c1cccc(Cl)c1)c1ccc2c(C(F)(F)F)cc(C(F)(F)F)nc2n1 (configuration not stated) | 90 nM
67 | COc1ccccc1C(=O)Nc1nc(-c2ccc(S(=O)(=O)N3CCOCC3)cc2)cs1 | 2250 nM
68 | O=C(O)c1sc2cc(C(F)(F)F)cnc2c1-c1ccco1 | > 40000 nM (inactive)
69 | CCCC(=O)N1CCN(c2ccc(NC(=O)c3cc4ccccc4o3)cc2Cl)CC1 | 2950 nM
70 | Cc1ccc2[nH]c3c(N4CCCCCC4)ncnc3c2c1 | 1810 nM
71 | Cc1cc(/C=N/n2cnnc2)c(C)n1-c1ccc(OCc2ccc(Cl)cc2)cc1 | 362 nM
72 | Cc1ccsc1C(=O)Nc1ccc(F)cc1 | > 40000 nM (inactive)
73 | Cc1nc2c(=O)n(C)c(=O)nc-2n(C)n1 | 1270 nM
74 | Cc1ccc(-c2nn(-c3ccccc3)cc2/C=N/NC(=O)c2ccc(Br)o2)cc1 | 1820 nM
75 | O=C(Nc1ccc(F)cc1)c1sc(-c2ccccc2)nc1C(F)(F)F | > 40000 nM (inactive)
76 | COc1ccc(CS(=O)(=O)/C(Cl)=C(/Cl)C(=O)Nc2ccc(OC)nc2)cc1 | 1840 nM
77 | Cn1c2c(c(=O)n(C)c1=O)C(C(F)(F)F)(C(F)(F)F)N=C(c1ccc(Cl)cc1)N2 | 1200 nM
